Measurements: patent US11707454B2, “Topical roflumilast formulation having antifungal properties” (ARCUTIS BIOTHERAPEUTICS, INC., priority 2020, dated 2023)
Converted amounts (≈) assume the structure as drawn. Where two headings read alike, the source gives them in different places.

Columns and labels:
Format in all cases: cell-based
[1] = test system: C. parapsilosis (ATCC 22019); experiment: in vitro micro-dilution susceptibility assay (method of Rojas); conditions: Lodderomyces parapsilosis, C. parapsilosis (22019), read-out: minimum inhibition concentration (MIC)
Method: (§1) The in vitro susceptibility of Malassezia species to roflumilast was determined utilizing three Candida species as internal control isolates for all testing. These three isolates were C. albicans American Type Culture Collection (ATCC) 90028, C. krusei (ATCC 6258) and C. parapsilosis (ATCC 22019). In addition to testing roflumilast all susceptibility assays were conducted using ketoconazole and hydrocortisone as positive and negative control compounds, respectively. All assays were placed within a humidified incubator set to 32° C. for a total of seven days. Each assay was evaluated after 12 hours of incubation and, every 24 hours post incubation for a total of seven days. The assays were evaluated for visual growth of each pathogen in the no treatment control as well as determination of minimum inhibition concentration (MIC) values. The concentration that provides a 3-log10 CFU/mL reduction in fungal burden from baseline at day 0 was defined as the minimum fungicidal concentration (MHC) and was determined by quantifying fungal burdens found in the microplate at day seven.
(§2) The method of Rojas (Rojas F D, et al. Antifungal susceptibility of Malassezia furfur, Malassezia sympodialis, and Malassezia globose to azole drugs and amphotericin B evaluated using a broth microdilution method. 2014. Medical Mycology. 52:641-646) was used in which the liquid broth medium was RPMI 1640 with added 1.8% glucose, 1% peptone, 0.5% ox-bile, 0.5% malt extract, 1% glycerol, 0.5% Tween 40 and 0.05% Tween 80. Round bottom 96 well microplates were used. The inoculums were prepared in sterile saline and diluted to a final targeted concentration of 0.5×10^5 to 2.5×10^5 CFU/mL in supplemented RPMI. […] For the internal control isolate C. parapsilosis (ATCC 22019) the expected CLSI values for ketoconazole of 0.03-0.25 (at 24 hours) and 0.06-0.5 (at 48 hours) did agree with the 2-day value (Table A) of 0.5.

C. krusei (ATCC 6258) = experiment: as above; conditions: Pichia kudriavzevii, read-out: minimum inhibition concentration (MIC)
Method: as §1, §2

[2] = test system: M. globose (ATCC MYA-4889); experiment: as above; conditions: for MIC: read-out: minimum inhibition concentration (MIC)
Method: as §1, §2

M. furfur (ATCC 44344) = experiment: as above; conditions: for MIC: Malassezia furfur, read-out: minimum inhibition concentration (MIC)
Method: as §1, §2

C. albicans (ATCC 90028) = experiment: as above; conditions: Candida albicans, read-out: minimum inhibition concentration (MIC)
Method: as §1, §2

M. furfur (ATCC 14521) = experiment: as above
Method: as §1, §2

M. furfur (ATCC 12078) = experiment: as above; conditions: for MIC: Malassezia furfur, read-out: minimum inhibition concentration (MIC)
Method: as §1, §2

[3] = test system: M. restricta (ATCC MYA-4611); experiment: as above; conditions: for MIC: read-out: minimum inhibition concentration (MIC)
Method: as §1, §2

Candida species = experiment: in vitro micro-dilution susceptibility assay, summary; conditions: method of Rojas
Method: as §1, with “seven. […]” for “seven.”

Malassezia species = experiment: as above; conditions: compared to the hydrocortisone negative control
Method: as §1, with “seven. […]” for “seven.”

MIC ([1]; ATCC22019, 12 h, Time 0.5 days): 1020 µg/mL (≈ 2540 µM)
MIC ([1]; ATCC22019, 24 h, Time 1 days): 1020 µg/mL (≈ 2540 µM)
MIC ([1]; ATCC22019, 48 h, Time 2 days): > 1020 µg/mL
MIC ([1]; ATCC22019, 72 h, Time 3 days): > 1020 µg/mL
MIC ([1]; ATCC22019, 96 h, Time 4 days): > 1020 µg/mL
MIC ([1]; ATCC22019, 120 h, Time 5 days): > 1020 µg/mL
MIC ([1]; ATCC22019, 144 h, Time 6 days): > 1020 µg/mL
MIC ([1]; ATCC22019, 168 h, Time 7 days): > 1020 µg/mL
MIC (C. krusei (ATCC 6258); ATCC6258, 12 h, Time 0.5 days): 128 µg/mL (≈ 317 µM)
MIC (C. krusei (ATCC 6258); ATCC6258, 24 h, Time 1 days): 1020 µg/mL (≈ 2540 µM)
MIC (C. krusei (ATCC 6258); ATCC6258, 48 h, Time 2 days): > 1020 µg/mL
MIC (C. krusei (ATCC 6258); ATCC6258, 72 h, Time 3 days): > 1020 µg/mL
MIC (C. krusei (ATCC 6258); ATCC6258, 96 h, Time 4 days): > 1020 µg/mL
MIC (C. krusei (ATCC 6258); ATCC6258, 120 h, Time 5 days): > 1020 µg/mL
MIC (C. krusei (ATCC 6258); ATCC6258, 144 h, Time 6 days): > 1020 µg/mL
MIC (C. krusei (ATCC 6258); ATCC6258, 168 h, Time 7 days): > 1020 µg/mL
MIC ([2]; 48 h, Time 2 days): 32 µg/mL (≈ 79.4 µM)
MIC ([2]; 72 h, Time 3 days): 32 µg/mL (≈ 79.4 µM)
MIC ([2]; 96 h, Time 4 days): 128 µg/mL (≈ 317 µM)
MIC ([2]; 120 h, Time 5 days): 128 µg/mL (≈ 317 µM)
MIC ([2]; 144 h, Time 6 days): 128 µg/mL (≈ 317 µM)
MIC ([2]; 168 h, Time 7 days): 128 µg/mL (≈ 317 µM)
minimum inhibition concentration (MIC) ([2]; Time 0.5 days): NGO
minimum inhibition concentration (MIC) ([2]; Time 1 days): NGO
MIC (M. furfur (ATCC 44344); ATCC44344, 48 h, Time 2 days): 64 µg/mL (≈ 159 µM)
MIC (M. furfur (ATCC 44344); ATCC44344, 72 h, Time 3 days): 64 µg/mL (≈ 159 µM)
MIC (M. furfur (ATCC 44344); ATCC44344, 96 h, Time 4 days): 64 µg/mL (≈ 159 µM)
MIC (M. furfur (ATCC 44344); ATCC44344, 120 h, Time 5 days): 64 µg/mL (≈ 159 µM)
MIC (M. furfur (ATCC 44344); ATCC44344, 144 h, Time 6 days): 64 µg/mL (≈ 159 µM)
MIC (M. furfur (ATCC 44344); ATCC44344, 168 h, Time 7 days): 64 µg/mL (≈ 159 µM)
minimum inhibition concentration (MIC) (M. furfur (ATCC 44344); Time 0.5 days): NGO
minimum inhibition concentration (MIC) (M. furfur (ATCC 44344); Time 1 days): NGO
MIC (C. albicans (ATCC 90028); ATCC90028, 12 h, Time 0.5 days): > 1020 µg/mL
MIC (C. albicans (ATCC 90028); ATCC90028, 24 h, Time 1 days): > 1020 µg/mL
MIC (C. albicans (ATCC 90028); ATCC90028, 48 h, Time 2 days): > 1020 µg/mL
MIC (C. albicans (ATCC 90028); ATCC90028, 72 h, Time 3 days): > 1020 µg/mL
MIC (C. albicans (ATCC 90028); ATCC90028, 96 h, Time 4 days): > 1020 µg/mL
MIC (C. albicans (ATCC 90028); ATCC90028, 120 h, Time 5 days): > 1020 µg/mL
MIC (C. albicans (ATCC 90028); ATCC90028, 144 h, Time 6 days): > 1020 µg/mL
MIC (C. albicans (ATCC 90028); ATCC90028, 168 h, Time 7 days): > 1020 µg/mL
minimum inhibition concentration (MIC) (M. furfur (ATCC 14521); Time 0.5 days): NGO
minimum inhibition concentration (MIC) (M. furfur (ATCC 14521); Time 1 days): NGO
MIC (M. furfur (ATCC 12078); ATCC12078, 48 h, Time 2 days): 128 µg/mL (≈ 317 µM)
MIC (M. furfur (ATCC 12078); ATCC12078, 72 h, Time 3 days): 128 µg/mL (≈ 317 µM)
MIC (M. furfur (ATCC 12078); ATCC12078, 96 h, Time 4 days): 128 µg/mL (≈ 317 µM)
MIC (M. furfur (ATCC 12078); ATCC12078, 120 h, Time 5 days): 128 µg/mL (≈ 317 µM)
MIC (M. furfur (ATCC 12078); ATCC12078, 144 h, Time 6 days): 128 µg/mL (≈ 317 µM)
MIC (M. furfur (ATCC 12078); ATCC12078, 168 h, Time 7 days): 128 µg/mL (≈ 317 µM)
minimum inhibition concentration (MIC) (M. furfur (ATCC 12078); Time 0.5 days): NGO
minimum inhibition concentration (MIC) (M. furfur (ATCC 12078); Time 1 days): NGO
MIC ([3]; 48 h, Time 2 days): 32 µg/mL (≈ 79.4 µM)
MIC ([3]; 72 h, Time 3 days): 32 µg/mL (≈ 79.4 µM)
MIC ([3]; 96 h, Time 4 days): 32 µg/mL (≈ 79.4 µM)
MIC ([3]; 120 h, Time 5 days): 32 µg/mL (≈ 79.4 µM)
MIC ([3]; 144 h, Time 6 days): 32 µg/mL (≈ 79.4 µM)
MIC ([3]; 168 h, Time 7 days): 64 µg/mL (≈ 159 µM)
minimum inhibition concentration (MIC) ([3]; Time 0.5 days): NGO
minimum inhibition concentration (MIC) ([3]; Time 1 days): NGO
Compound: O=C(Nc1c(Cl)cncc1Cl)c1ccc(OC(F)F)c(OCC2CC2)c1 [Roflumilast, N-(3,5-dichloropyrid-4-yl)-3-cyclopropylmethoxy-4-difluoromethoxybenzamid-e]
antifungal activity against the tested Candida species (Candida species): did not demonstrate antifungal activity
antifungal activity against Malassezia species (Malassezia species): provides antifungal activity against Malassezia species
